Test results from patent US10031128B2, “Screening method, screening kit and analysis program” (National Institutes for Quantum and Radiological Science …, priority 2012, dated 2018).
Where two headings read alike, the source gives them in different places.

System: rat thymocytes
Format: cell-based
Details: 4 h, pH 6.8
Description: As Example 1, an example using thymocytes as lymphoid cells will be described. In this example, rat thymocytes are used. A rat is suited for studies of screening and the like because a rat has the thymus larger than that of a mouse, and a large quantity of thymocytes corresponding to 2000 to 20000 samples is obtained from one rat.
(1) First, extract the thymus surgically from a rat.
(2) The extracted thymus is washed lightly in PBS. This washing may be performed for 1 minute to 5 minutes, and actually for 2 minutes to 3 minutes merely for washing out excess blood or tissues.
(3) The washed thymus is put into a RPMI 1640 medium supplemented with approximately 10% FBS (fetal bovine serum) (having subjected to an inactivation treatment). As the inactivation treatment, a heat treatment at 56° C. is performed for 30 minutes. In the example, the RPMI 1640 medium is 500 ml (ml is a unit symbol for milliliter, the same shall apply hereinafter), and FBS is 55 ml. Thereafter, the thymocytes are kept in the RPMI 1640 medium supplemented with serum to improve the separating ability of the presence or absence of condensation, and improve the measurement accuracy.
(4) Thymocytes are squeezed out of the thymus with tweezers, and passed through mesh to remove unnecessary contaminants and to disassemble the thymocytes. The culture temperature during this treatment is 4° C., and pH is 6.8. The amount of the medium used during cell purification is approximately 20 ml.
(5) The number of cells is counted, and a required number of the cells are seeded on a plate. In the experiment of this example, 5×10^5 cells/well are seeded using a 48-well plate. Also, since measurement is performed for about 20 samples in the experiment of this example, approximately 10 ml of a medium is used. As the medium, a medium of the volume conforming to the container is required. For example, when a 48-well plate is used, approximately 500 μl/well (microliter per well) is required in seeding cells on the plate. When a 96-well plate is used, approximately 50 to 200 μl/well is required in seeding cells on the plate. When one 96-well plate is used, up to approximately 20 ml of a medium is required.
In this example, (I) irradiation with 2 Gy X-ray, (II) administration with a 1 mM (mM is a unit symbol for millimolar, the same shall apply hereinafter) catechin derivative, (III) preliminary administration with a 1 mM catechin derivative and irradiation with 2 Gy X-ray, (IV) administration with 100 μM epigallocatechin (μM is a unit symbol for micromolar, the same shall apply hereinafter), (V) administration with 10 μM vitamin C, or (VI) administration with 100 μM vitamin C was performed. The temperature of the medium in performing this treatment can be 4° C. to room temperature, and is preferably approximately 4° C. so as not to promote the reaction. Gray (Gy) is a unit for absorbed dose of radiation. The absorbed dose when 1 joule of radiation energy is absorbed in 1 kilogram of a substance by radiation is defined as 1 gray.
The samples of (I) to (VI) in Step 2 were incubated for 4 hours. During the incubation, the medium is at a temperature of 37° C., at a CO2 concentration of 5%, under humidification, and at pH 6.8.
After the incubation in Step 3, measurement was performed by using FACSCALIBUR™ (a flow cytometry system). The time required for the measurement is about one hour. […]
FIG. 2(A) to FIG. 2(D), and FIG. 3(A) to FIG. 3(D) are cell size measurement graphs showing measured cell sizes. […]

peak of cell size (cell size measurement graph) (10 μM) | SMILES | peak of cell size (cell size measurement graph) (100 μM) | another peak at apoptotic cell peak position (cell size) (10 μM) | another peak at apoptotic cell peak position (cell size) (100 μM)
– | Oc1cc(O)c2c(c1)O[C@H](c1cc(O)c(O)c(O)c1)[C@H](O)C2 [epigallocatechin] | around 300 | – | –
around 400 | O=C1O[C@H]([C@@H](O)CO)C(O)=C1O [vitamin C] | around 400 | around 250 | around 250
